PubChem BioAssay (NCI)
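Where inhibition never reached the appropriate level, the endpoint shown equals the highest concentration tested. Otherwise, values were interpolated linearly from a five-concentration, 48-hour dose response in 96-well plates. At the GI50, growth is halved. TGI: total growth inhibition.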

Columns and labels:
Test in all cases: NCI anticancer screen, dose series, 48 h
[1] = system: SF-539 CNS
[2] = system: ACHN renal
[3] = system: HOP-92 NSCLC
[4] = system: SK-MEL-2 melanoma
[5] = system: HOP-62 NSCLC
[6] = system: NCI-H522 lung
[7] = system: LOX IMVI melanoma
[8] = system: MOLT-4 leukemia
[9] = system: T-47D breast
[10] = system: COLO 205 colon

`COc1cc2cc(Oc3ccc(NC(=O)Nc4ccc(F)c(C(F)(F)F)c4)cc3)c(C)nc2cc1OCCN1CCCCC1` was tested, and the GI50 [1] was 1.68 µM, the TGI [1] was 3.08 µM and the GI50 [2] was 1.65 µM. It also gave a TGI [2] of 3.01 µM, a GI50 [3] of 1.52 µM and a TGI [3] of 3.02 µM. The GI50 [4] was 1.84 µM and the TGI [4] was 3.45 µM.

Molecule `CCOC(=O)c1ncoc1[C@H]1COC(C)(C)O1` has a TGI [5] of over 100 µM, a TGI [6] of over 100 µM and a TGI [1] of over 100 µM. It also gave a TGI [2] of over 100 µM, a TGI [7] of over 100 µM and a TGI [8] of over 100 µM. It also gave a TGI [4] of over 100 µM.

With `COc1cc(C2CC(c3cccc(Nc4ccncc4)c3)=NN2c2cc(Cl)cc(Cl)c2)cc(OC)c1OC` (configuration not stated) the GI50 [1] was 1.72 µM, the TGI [1] was 3.2 µM and the GI50 [2] was 1.66 µM. For the same molecule, the TGI [2] was 3.03 µM, the GI50 [8] was 1.53 µM and the TGI [8] was 3.57 µM. The GI50 [3] was 1.12 µM, the TGI [3] was 2.44 µM and the GI50 [4] was 2.05 µM. For the same molecule, the TGI [4] was 4.13 µM.

With `COc1ccc(/C=C2\CN(C(=O)CCN3CCC(=NO)CC3)C/C(=C\c3ccc(OC)cc3)C2=O)cc1` the GI50 [5] was 2.03 µM, the TGI [5] was 4.59 µM and the GI50 [6] was 2.17 µM. For the same molecule, the TGI [6] was 5.5 µM, the GI50 [9] was 2.57 µM and the TGI [9] was 8.91 µM. For the same molecule, the GI50 [1] was 1.71 µM, the TGI [1] was 3.18 µM and the GI50 [2] was 1.95 µM. For the same molecule, the TGI [2] was 4.05 µM, the GI50 [7] was 1.47 µM and the TGI [7] was 2.96 µM. The GI50 [8] was 2.95 µM, the TGI [8] was 26.9 µM and the GI50 [3] was 2.34 µM. For the same molecule, the TGI [3] was 9.32 µM, the GI50 [4] was 11.7 µM and the TGI [4] was 30.4 µM. It also gave a GI50 [10] of 2.04 µM and a TGI [10] of 4.11 µM.

With `CC(=O)Oc1ccccc1[C@H]1CC(=O)C[C@H](c2ccccc2OC(C)=O)C12C(=O)c1ccccc1C2=O` the TGI [5] was over 100 µM, the TGI [6] was 92.8 µM and the TGI [9] was over 100 µM. For the same molecule, the TGI [8] was over 100 µM, the TGI [3] was over 100 µM and the TGI [4] was 66.2 µM. For the same molecule, the TGI [10] was 54.3 µM.
